Measured values published in ChEMBL document CHEMBL1201861, “Genomics of Drug Sensitity in Cancer screening data, Wellcome Trust Sanger Institute”.

Key:
Assay in all cases: cells
KG-1 = type: functional, cell-based, Homo sapiens; conditions: Homo sapiens, KG-1;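 also: growth inhibition of KG-1 cells, read out by a cell viability assay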
Description: SANGER: Inhibition of human KG-1 cell growth in a cell viability assay.

TGBC1TKB = type: functional, cell-based, Homo sapiens; conditions: Homo sapiens, TGBC1TKB;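 also: growth inhibition of TGBC1TKB cells, read out by a cell viability assay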
Description: SANGER: Inhibition of human TGBC1TKB cell growth in a cell viability assay.

ES4 = type: functional, cell-based, Homo sapiens; conditions: Homo sapiens, ES4;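 also: growth inhibition of human ES4 cells, read out by a cell viability assay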
Description: SANGER: Inhibition of human ES4 cell growth in a cell viability assay.

LOX IMVI = type: functional, cell-based, Homo sapiens; conditions: Homo sapiens, LOX IMVI
Description: SANGER: Inhibition of human LOXIMVI cell growth in a cell viability assay.

OVCAR-4 = type: functional, cell-based, Homo sapiens; conditions: Homo sapiens, OVCAR-4;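 also: growth inhibition of human OVCAR-4 cells, measured with a cell viability assay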
Description: SANGER: Inhibition of human OVCAR-4 cell growth in a cell viability assay.

Calu-6 = type: functional, cell-based, Homo sapiens; conditions: Homo sapiens, Calu-6;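 also: growth of human Calu-6 cells, read out by a cell viability assay, IC50 marking inhibition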
Description: SANGER: Inhibition of human Calu-6 cell growth in a cell viability assay.

QIMR-WIL = type: functional, cell-based, Homo sapiens; conditions: Homo sapiens, QIMR-WIL;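 also: growth inhibition of QIMR-WIL cells, read out with a cell viability assay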
Description: SANGER: Inhibition of human QIMR-WIL cell growth in a cell viability assay.

TGBC24TKB = type: functional, cell-based, Homo sapiens; conditions: Homo sapiens, TGBC24TKB;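 also: growth inhibition of human TGBC24TKB cells, read out with a cell viability assay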
Description: SANGER: Inhibition of human TGBC24TKB cell growth in a cell viability assay.

NCI-H446 = type: functional, cell-based, Homo sapiens; conditions: Homo sapiens, NCI-H446;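 also: growth inhibition of NCI-H446 cells determined by a cell viability assay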
Description: SANGER: Inhibition of human NCI-H446 cell growth in a cell viability assay.

NCI-H1648 = type: functional, cell-based, Homo sapiens; conditions: Homo sapiens, NCI-H1648;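 also: cell viability assay measuring inhibition of NCI-H1648 cell growth, from the Sanger screening data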
Description: SANGER: Inhibition of human NCI-H1648 cell growth in a cell viability assay.

LU-134-A = type: functional, cell-based, Homo sapiens; conditions: Homo sapiens, LU-134-A
Description: SANGER: Inhibition of human LU-134-A cell growth in a cell viability assay.

MS-1 = type: functional, cell-based, Homo sapiens; conditions: Homo sapiens, MS-1
Description: SANGER: Inhibition of human MS-1 cell growth in a cell viability assay.

OMC-1 = type: functional, cell-based, Homo sapiens; conditions: Homo sapiens, OMC-1;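 also: growth inhibition of the OMC-1 cell line, measured by a cell viability assay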
Description: SANGER: Inhibition of human OMC-1 cell growth in a cell viability assay.

HT = type: functional, cell-based, Homo sapiens; conditions: Homo sapiens, HT
Description: SANGER: Inhibition of human HT cell growth in a cell viability assay.

C2BBe1 = type: functional, cell-based, Homo sapiens; conditions: Homo sapiens, C2BBe1;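 also: growth inhibition of C2BBe1 cells, read out through a viability assay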
Description: SANGER: Inhibition of human C2BBe1 cell growth in a cell viability assay.

NCI-H1581 = type: functional, cell-based, Homo sapiens; conditions: Homo sapiens, NCI-H1581;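 also: cell growth inhibition read out by a viability assay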
Description: SANGER: Inhibition of human NCI-H1581 cell growth in a cell viability assay.

AM-38 = type: functional, cell-based, Homo sapiens; conditions: Homo sapiens, AM-38;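 also: growth inhibition of AM-38 cells of human origin, read out by a cell viability assay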
Description: SANGER: Inhibition of human AM-38 cell growth in a cell viability assay.

DSH1 = type: functional, cell-based, Homo sapiens; conditions: Homo sapiens, DSH1;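 also: growth inhibition of human DSH1 cells, measured with a cell viability readout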
Description: SANGER: Inhibition of human DSH1 cell growth in a cell viability assay.

ETK-1 = type: functional, cell-based, Homo sapiens; conditions: Homo sapiens, ETK-1;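 also: growth inhibition of human ETK-1 cells, read out with a cell viability assay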
Description: SANGER: Inhibition of human ETK-1 cell growth in a cell viability assay.

SF-539 = type: functional, cell-based, Homo sapiens; conditions: Homo sapiens, SF-539;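 also: Read-out is a cell viability assay, with IC50 reflecting inhibition of cell growth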
Description: SANGER: Inhibition of human SF539 cell growth in a cell viability assay.

NOMO-1 = type: functional, cell-based, Homo sapiens; conditions: Homo sapiens, NOMO-1;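 also: growth inhibition of human NOMO-1 cells measured by a cell viability assay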
Description: SANGER: Inhibition of human NOMO-1 cell growth in a cell viability assay.

SNB-75 = type: functional, cell-based, Homo sapiens; conditions: Homo sapiens, SNB-75;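 also: cell viability assay measuring growth inhibition of human SNB-75 cells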
Description: SANGER: Inhibition of human SNB75 cell growth in a cell viability assay.

L-428 = type: functional, cell-based, Homo sapiens; conditions: Homo sapiens, L-428
Description: SANGER: Inhibition of human L-428 cell growth in a cell viability assay.

KM12 = type: functional, cell-based, Homo sapiens; conditions: Homo sapiens, KM12;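 also: KM12 cell growth inhibition, read out with a cell viability assay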
Description: SANGER: Inhibition of human KM12 cell growth in a cell viability assay.

MC116 = type: functional, cell-based, Homo sapiens; conditions: Homo sapiens, MC116;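 also: growth inhibition of MC116 cells, read out with a cell viability assay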
Description: SANGER: Inhibition of human MC116 cell growth in a cell viability assay.

HCC2157 = type: functional, cell-based, Homo sapiens; conditions: Homo sapiens, HCC2157;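 also: growth inhibition of the cancer cell line, read out as cell viability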
Description: SANGER: Inhibition of human HCC2157 cell growth in a cell viability assay.

NCI-H1838 = type: functional, cell-based, Homo sapiens; conditions: Homo sapiens, NCI-H1838;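 also: growth inhibition of NCI-H1838 cells, determined with a cell viability readout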
Description: SANGER: Inhibition of human NCI-H1838 cell growth in a cell viability assay.

KU812 cell line = type: functional, cell-based, Homo sapiens; conditions: Homo sapiens, KU812;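 also: growth inhibition of KU812 cells, read out with a cell viability assay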
Description: SANGER: Inhibition of human KU812 cell growth in a cell viability assay.

CCRF-CEM = type: functional, cell-based, Homo sapiens; conditions: Homo sapiens, CCRF-CEM;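 also: inhibition of CCRF-CEM cell growth, measured by a cell viability assay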
Description: SANGER: Inhibition of human CCRF-CEM cell growth in a cell viability assay.

TE-10 = type: functional, cell-based, Homo sapiens; conditions: Homo sapiens, TE-10;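 also: growth inhibition of TE-10 cells, measured by a cell viability assay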
Description: SANGER: Inhibition of human TE-10 cell growth in a cell viability assay.

NCI-H720 = type: functional, cell-based, Homo sapiens; conditions: Homo sapiens, NCI-H720;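 also: growth inhibition of human NCI-H720 cells determined by a cell viability assay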
Description: SANGER: Inhibition of human NCI-H720 cell growth in a cell viability assay.

K5 = type: functional, cell-based, Homo sapiens; conditions: Homo sapiens, K5
Description: SANGER: Inhibition of human K5 cell growth in a cell viability assay.

SW 962 = type: functional, cell-based, Homo sapiens; conditions: Homo sapiens, SW 962;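 also: growth inhibition of human SW962 cells, read out by a cell viability assay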
Description: SANGER: Inhibition of human SW962 cell growth in a cell viability assay.

DMS-114 = type: functional, cell-based, Homo sapiens; conditions: Homo sapiens, DMS-114
SNU1 = type: functional, cell-based, Homo sapiens; conditions: Homo sapiens, SNU1;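 also: growth inhibition of human NCI-SNU-1 cells, measured with a cell viability assay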
Description: SANGER: Inhibition of human NCI-SNU-1 cell growth in a cell viability assay.

SW872 = type: functional, cell-based, Homo sapiens; conditions: Homo sapiens, SW872;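 also: growth inhibition of SW872 cells, read out by a viability assay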
Description: SANGER: Inhibition of human SW872 cell growth in a cell viability assay.

LB771-HNC = type: functional, cell-based, Homo sapiens; conditions: Homo sapiens, LB771-HNC;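 also: growth inhibition of LB771-HNC human cells, read out with a cell viability assay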
Description: SANGER: Inhibition of human LB771-HNC cell growth in a cell viability assay.

RXF 393 = type: functional, cell-based, Homo sapiens; conditions: Homo sapiens, RXF 393;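 also: growth inhibition of human RXF 393 cells, read out with a cell viability assay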
Description: SANGER: Inhibition of human RXF393 cell growth in a cell viability assay.

DB = type: functional, cell-based, Homo sapiens; conditions: Homo sapiens, DB
Description: SANGER: Inhibition of human DB cell growth in a cell viability assay.

CAS-1 = type: functional, cell-based, Homo sapiens; conditions: Homo sapiens, CAS-1;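 also: growth inhibition of CAS-1 cells, measured with a cell viability assay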
Description: SANGER: Inhibition of human CAS-1 cell growth in a cell viability assay.

UACC-257 = type: functional, cell-based, Homo sapiens; conditions: Homo sapiens, UACC-257
Description: SANGER: Inhibition of human UACC-257 cell growth in a cell viability assay.

ES3 = type: functional, cell-based, Homo sapiens; conditions: Homo sapiens, ES3;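 also: growth inhibition of ES3 cells, read out with a cell viability assay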
Description: SANGER: Inhibition of human ES3 cell growth in a cell viability assay.

IST-SL1 = type: functional, cell-based, Homo sapiens; conditions: Homo sapiens, IST-SL1;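 also: growth inhibition of human IST-SL1 cells, read out with a cell viability assay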
Description: SANGER: Inhibition of human IST-SL1 cell growth in a cell viability assay.

TE-9 = type: functional, cell-based, Homo sapiens; conditions: Homo sapiens, TE-9;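 also: cell growth inhibition, measured with a cell viability readout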
Description: SANGER: Inhibition of human TE-9 cell growth in a cell viability assay.

MV4-11 = type: functional, cell-based, Homo sapiens, MV-4-11; conditions: Homo sapiens, MV4-11;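 also: cell viability readout measuring growth inhibition of human MV-4-11 cells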
Description: SANGER: Inhibition of human MV-4-11 cell growth in a cell viability assay.

HH = type: functional, cell-based, Homo sapiens; conditions: Homo sapiens, HH
Description: SANGER: Inhibition of human HH cell growth in a cell viability assay.

EC-GI-10 = type: functional, cell-based, Homo sapiens; conditions: Homo sapiens, EC-GI-10
Description: SANGER: Inhibition of human EC-GI-10 cell growth in a cell viability assay.

EW-24 = type: functional, cell-based, Homo sapiens; conditions: Homo sapiens, EW-24;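 also: human EW-24 cancer cell line, growth inhibition read out via a cell viability assay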
Description: SANGER: Inhibition of human EW-24 cell growth in a cell viability assay.

SK-LMS-1 = type: functional, cell-based, Homo sapiens; conditions: Homo sapiens, SK-LMS-1;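 also: growth inhibition of human SK-LMS-1 cells, read out with a cell viability assay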
Description: SANGER: Inhibition of human SK-LMS-1 cell growth in a cell viability assay.

CCN(CC)CCCCNc1ncc2cc(-c3cc(OC)cc(OC)c3)c(NC(=O)NC(C)(C)C)nc2n1 [PD-173074] was tested, and the IC50 (KG-1) was 51.3 nM, the IC50 (TGBC1TKB) was > 2000 nM and the IC50 (ES4) was > 2000 nM. For the same compound, the IC50 (LOX IMVI) was > 2000 nM, the IC50 (OVCAR-4) was > 2000 nM and the IC50 (Calu-6) was > 2000 nM. The IC50 (QIMR-WIL) was > 2000 nM, the IC50 (TGBC24TKB) was > 2000 nM and the IC50 (NCI-H446) was > 2000 nM. For the same compound, the IC50 (NCI-H1648) was > 2000 nM, the IC50 (LU-134-A) was > 2000 nM and the IC50 (MS-1) was > 2000 nM. The IC50 (OMC-1) was > 2000 nM, the IC50 (HT) was > 2000 nM and the IC50 (C2BBe1) was > 2000 nM. The IC50 (NCI-H1581) was 12.3 nM, the IC50 (AM-38) was > 2000 nM and the IC50 (DSH1) was > 2000 nM. The IC50 (ETK-1) was > 2000 nM, the IC50 (SF-539) was > 2000 nM and the IC50 (NOMO-1) was > 2000 nM. The IC50 (SNB-75) was > 2000 nM, the IC50 (L-428) was > 2000 nM and the IC50 (KM12) was > 2000 nM. For the same compound, the IC50 (MC116) was > 2000 nM, the IC50 (HCC2157) was > 2000 nM and the IC50 (NCI-H1838) was > 2000 nM. For the same compound, the IC50 (KU812 cell line) was > 2000 nM, the IC50 (CCRF-CEM) was > 2000 nM and the IC50 (TE-10) was > 2000 nM. For the same compound, the IC50 (NCI-H720) was > 2000 nM, the IC50 (K5) was > 2000 nM and the IC50 (SW 962) was 790 nM. The IC50 (DMS-114) was 1370 nM, the IC50 (SNU1) was > 2000 nM and the IC50 (SW872) was > 2000 nM. The IC50 (LB771-HNC) was > 2000 nM, the IC50 (RXF 393) was > 2000 nM and the IC50 (DB) was > 2000 nM. For the same compound, the IC50 (CAS-1) was > 2000 nM, the IC50 (UACC-257) was > 2000 nM and the IC50 (ES3) was > 2000 nM. For the same compound, the IC50 (IST-SL1) was > 2000 nM, the IC50 (TE-9) was > 2000 nM and the IC50 (MV4-11) was > 2000 nM. For the same compound, the IC50 (HH) was > 2000 nM.

COc1cc2c(Nc3ccc(NC(=O)c4ccccc4)cc3)ncnc2cc1OCCCN1CCOCC1 was tested, and the IC50 (KG-1) was 3200 nM, the IC50 (TGBC1TKB) was > 4000 nM and the IC50 (ES4) was > 4000 nM. The IC50 (LOX IMVI) was > 4000 nM, the IC50 (OVCAR-4) was > 4000 nM and the IC50 (Calu-6) was > 4000 nM. For the same compound, the IC50 (QIMR-WIL) was 2060 nM, the IC50 (TGBC24TKB) was > 4000 nM and the IC50 (NCI-H446) was > 4000 nM. For the same compound, the IC50 (NCI-H1648) was > 4000 nM, the IC50 (LU-134-A) was > 4000 nM and the IC50 (MS-1) was > 4000 nM. The IC50 (OMC-1) was > 4000 nM, the IC50 (HT) was > 4000 nM and the IC50 (C2BBe1) was > 4000 nM. For the same compound, the IC50 (NCI-H1581) was 1680 nM, the IC50 (AM-38) was > 4000 nM and the IC50 (DSH1) was > 4000 nM. For the same compound, the IC50 (ETK-1) was > 4000 nM, the IC50 (SF-539) was > 4000 nM and the IC50 (NOMO-1) was 1370 nM. For the same compound, the IC50 (SNB-75) was > 4000 nM, the IC50 (L-428) was > 4000 nM and the IC50 (KM12) was > 4000 nM. The IC50 (MC116) was > 4000 nM, the IC50 (HCC2157) was > 4000 nM and the IC50 (NCI-H1838) was > 4000 nM. The IC50 (KU812 cell line) was > 4000 nM, the IC50 (CCRF-CEM) was 1870 nM and the IC50 (TE-10) was > 4000 nM. The IC50 (NCI-H720) was 1210 nM, the IC50 (K5) was > 4000 nM and the IC50 (SW 962) was > 4000 nM. For the same compound, the IC50 (DMS-114) was > 4000 nM, the IC50 (SNU1) was 3110 nM and the IC50 (SW872) was > 4000 nM. For the same compound, the IC50 (LB771-HNC) was > 4000 nM, the IC50 (RXF 393) was 3490 nM and the IC50 (DB) was > 4000 nM. The IC50 (CAS-1) was > 4000 nM, the IC50 (UACC-257) was > 4000 nM and the IC50 (ES3) was 473 nM. For the same compound, the IC50 (IST-SL1) was 1320 nM, the IC50 (TE-9) was > 4000 nM and the IC50 (MV4-11) was 796 nM. For the same compound, the IC50 (HH) was > 4000 nM.

Work on CO[C@H]1C[C@@H]2CC[C@@H](C)[C@@](O)(O2)C(=O)C(=O)N2CCCC[C@H]2C(=O)O[C@H]([C@H](C)C[C@@H]2CC[C@@H](OC(=O)C(C)(CO)CO)[C@H](OC)C2)CC(=O)[C@H](C)/C=C(\C)[C@@H](O)[C@@H](OC)C(=O)[C@H](C)C[C@H](C)/C=C/C=C/C=C/1C [TEMSIROLIMUS] yielded an IC50 (KG-1) of 12.9 nM, an IC50 (TGBC1TKB) of 137 nM and an IC50 (ES4) of 37.8 nM. The IC50 (LOX IMVI) was 120 nM, the IC50 (OVCAR-4) was > 200 nM and the IC50 (Calu-6) was > 200 nM. For the same compound, the IC50 (QIMR-WIL) was 5.71 nM, the IC50 (TGBC24TKB) was 141 nM and the IC50 (NCI-H446) was > 200 nM. For the same compound, the IC50 (NCI-H1648) was 182 nM, the IC50 (LU-134-A) was 28.9 nM and the IC50 (MS-1) was > 200 nM. For the same compound, the IC50 (OMC-1) was > 200 nM, the IC50 (HT) was 27.6 nM and the IC50 (C2BBe1) was > 200 nM. For the same compound, the IC50 (NCI-H1581) was > 200 nM, the IC50 (AM-38) was > 200 nM and the IC50 (DSH1) was > 200 nM. It also gave an IC50 (ETK-1) of 31.8 nM, an IC50 (SF-539) of 121 nM and an IC50 (NOMO-1) of 168 nM. For the same compound, the IC50 (SNB-75) was > 200 nM, the IC50 (L-428) was > 200 nM and the IC50 (EC-GI-10) was > 200 nM. For the same compound, the IC50 (KM12) was > 200 nM, the IC50 (MC116) was 25.5 nM and the IC50 (NCI-H1838) was > 200 nM. For the same compound, the IC50 (KU812 cell line) was > 200 nM, the IC50 (CCRF-CEM) was > 200 nM and the IC50 (TE-10) was > 200 nM. The IC50 (NCI-H720) was 9.62 nM, the IC50 (K5) was 1.33 nM and the IC50 (SW 962) was 15.6 nM. The IC50 (DMS-114) was 119 nM, the IC50 (SNU1) was 4.81 nM and the IC50 (SW872) was > 200 nM. The IC50 (LB771-HNC) was > 200 nM, the IC50 (RXF 393) was 15.7 nM and the IC50 (DB) was 3.12 nM. For the same compound, the IC50 (CAS-1) was > 200 nM, the IC50 (UACC-257) was > 200 nM and the IC50 (ES3) was 85.1 nM. For the same compound, the IC50 (IST-SL1) was > 200 nM, the IC50 (EW-24) was > 200 nM and the IC50 (TE-9) was > 200 nM. The IC50 (MV4-11) was 18.9 nM, the IC50 (HH) was 0.664 nM and the IC50 (SK-LMS-1) was > 200 nM.
